Laboratory results from ChEMBL document CHEMBL3885861, “Open TG-GATES”.

Organism: Rattus norvegicus
Assay: Open TG-GATES - Regimen: Daily Repeat
Assay type: toxicity, organism-based, Sprague-Dawley
Parameters: regimen Daily Repeat, gender Male, age 6 weeks
Settings: in vivo, po, route gavage; for APTT / Bas / Eos / Fbg / Hb / Ht / Lym / MCH / MCHC / MCV / Mono / Neu / PT / Plat / RBC / Ret / WBC: tissue Blood; for KIDNEY_L / KIDNEY_R / KIDNEY_TOTAL: tissue Kidney; for LIVER: tissue Liver; for A/G / ALP / ALT / AST / BUN / CRE / Ca / Cl / DBIL / GLC / IP / K / LDH / Na / PL / RALB / TBIL / TC / TG / TP / gamma-GTP: tissue Plasma
[1] = 100 mg/kg, 72 h, dose level Middle, time 3 day
[2] = 100 mg/kg, […], dose level Middle, time 7 day
[3] = 100 mg/kg, […], dose level Middle, time 14 day
[4] = 100 mg/kg, […], dose level Middle, time 28 day
[5] = 300 mg/kg, 72 h, dose level High, time 3 day
[6] = 300 mg/kg, […], dose level High, time 7 day
[7] = 300 mg/kg, […], dose level High, time 14 day
[8] = 300 mg/kg, […], dose level High, time 28 day

Cc1cccc(Nc2ccccc2C(=O)O)c1C [MEFENAMIC ACID]
TERMINAL_BW [1]: 234.2 g
APTT [1]: 18.5 s
Bas [1]: 0%
Eos [1]: 1%
Fbg [1]: 242.4 mg/dL
Hb [1]: 13.5 g/dL
Ht [1]: 38.1%
Lym [1]: 79.2%
MCH [1]: 22.1 pg
MCHC [1]: 35.4%
MCV [1]: 62.4 fL
Mono [1]: 2.6%
Neu [1]: 15.6%
PT [1]: 12.1 s
Plat [1]: 122.6 x10_4/uL
RBC [1]: 611.8 x10_4/ul
Ret [1]: 5.7%
WBC [1]: 97.2 x10_2/uL
KIDNEY_L [1]: 1 g
KIDNEY_R [1]: 1 g
KIDNEY_TOTAL [1]: 2 g
LIVER [1]: 11.2 g
A/G [1]: 1.6
ALP [1]: 1044 IU/L
ALT [1]: 38.6 IU/L
AST [1]: 65.4 IU/L
BUN [1]: 14.8 mg/dL
CRE [1]: 0.4 mg/dL
Ca [1]: 10.9 mg/dL
Cl [1]: 104 meq/L
DBIL [1]: 0.098 mg/dL
GLC [1]: 189.2 mg/dL
IP [1]: 6.9 mg/dL
K [1]: 4.2 meq/L
LDH [1]: 191.6 IU/L
Na [1]: 141.8 meq/L
PL [1]: 148 mg/dL
RALB [1]: 3.4 g/dL
TBIL [1]: 0.2 mg/dL
TC [1]: 81.6 mg/dL
TG [1]: 88.2 mg/dL
TP [1]: 5.5 g/dL
gamma-GTP [1]: 1.6 IU/L
TERMINAL_BW [2]: 269.2 g
TERMINAL_BW [3]: 320.1 g
TERMINAL_BW [4]: 386.3 g
APTT [2]: 18.5 s
Bas [2]: 0%
Eos [2]: 1%
Fbg [2]: 230 mg/dL
Hb [2]: 13.6 g/dL
Ht [2]: 37.9%
Lym [2]: 80.2%
MCH [2]: 21.7 pg
MCHC [2]: 35.9%
MCV [2]: 60.6 fL
Mono [2]: 2.4%
Neu [2]: 14.4%
PT [2]: 11.9 s
Plat [2]: 121.4 x10_4/uL
RBC [2]: 626.4 x10_4/ul
Ret [2]: 5.4%
WBC [2]: 99.8 x10_2/uL
APTT [3]: 20.3 s
Bas [3]: 0%
Eos [3]: 0.8%
Fbg [3]: 246.8 mg/dL
Hb [3]: 14.4 g/dL
Ht [3]: 40.6%
Lym [3]: 76%
MCH [3]: 21.6 pg
MCHC [3]: 35.3%
MCV [3]: 61.2 fL
Mono [3]: 2.4%
Neu [3]: 18.6%
PT [3]: 12.4 s
Plat [3]: 104.3 x10_4/uL
RBC [3]: 664 x10_4/ul
Ret [3]: 4.4%
WBC [3]: 124.7 x10_2/uL
APTT [4]: 19.4 s
Bas [4]: 0%
Eos [4]: 1.2%
Fbg [4]: 261.8 mg/dL
Hb [4]: 15.8 g/dL
Ht [4]: 44.8%
Lym [4]: 75%
MCH [4]: 19.8 pg
MCHC [4]: 35.3%
MCV [4]: 56.3 fL
Mono [4]: 2.2%
Neu [4]: 20.6%
PT [4]: 12.3 s
Plat [4]: 98.4 x10_4/uL
RBC [4]: 796.8 x10_4/ul
Ret [4]: 2.3%
WBC [4]: 98.3 x10_2/uL
KIDNEY_L [2]: 1.1 g
KIDNEY_R [2]: 1.2 g
KIDNEY_TOTAL [2]: 2.2 g
KIDNEY_L [3]: 1.3 g
KIDNEY_R [3]: 1.4 g
KIDNEY_TOTAL [3]: 2.7 g
KIDNEY_L [4]: 1.4 g
KIDNEY_R [4]: 1.4 g
KIDNEY_TOTAL [4]: 2.8 g
LIVER [2]: 12 g
LIVER [3]: 14.3 g
LIVER [4]: 14.9 g
A/G [2]: 1.5
ALP [2]: 825.2 IU/L
ALT [2]: 32.8 IU/L
AST [2]: 73.2 IU/L
BUN [2]: 17 mg/dL
CRE [2]: 0.4 mg/dL
Ca [2]: 10.7 mg/dL
Cl [2]: 103.2 meq/L
DBIL [2]: 0.078 mg/dL
GLC [2]: 219.2 mg/dL
IP [2]: 6.8 mg/dL
K [2]: 3.8 meq/L
LDH [2]: 177.4 IU/L
Na [2]: 140.2 meq/L
PL [2]: 150.8 mg/dL
RALB [2]: 3.4 g/dL
TBIL [2]: 0.1 mg/dL
TC [2]: 87.2 mg/dL
TG [2]: 62.2 mg/dL
TP [2]: 5.6 g/dL
gamma-GTP [2]: 1.2 IU/L
A/G [3]: 1.4
ALP [3]: 798 IU/L
ALT [3]: 39.6 IU/L
AST [3]: 64.6 IU/L
BUN [3]: 18.2 mg/dL
CRE [3]: 0.5 mg/dL
Ca [3]: 10.6 mg/dL
Cl [3]: 103.4 meq/L
DBIL [3]: 0.086 mg/dL
GLC [3]: 208.2 mg/dL
IP [3]: 7.4 mg/dL
K [3]: 4 meq/L
LDH [3]: 138.4 IU/L
Na [3]: 140.8 meq/L
PL [3]: 149 mg/dL
RALB [3]: 3.3 g/dL
TBIL [3]: 0.2 mg/dL
TC [3]: 79 mg/dL
TG [3]: 81.8 mg/dL
TP [3]: 5.8 g/dL
gamma-GTP [3]: 1 IU/L
A/G [4]: 1.3
ALP [4]: 673 IU/L
ALT [4]: 35.4 IU/L
AST [4]: 62.4 IU/L
BUN [4]: 18 mg/dL
CRE [4]: 0.5 mg/dL
Ca [4]: 10.7 mg/dL
Cl [4]: 104.2 meq/L
DBIL [4]: 0.088 mg/dL
GLC [4]: 219.4 mg/dL
IP [4]: 6.7 mg/dL
K [4]: 3.5 meq/L
LDH [4]: 143.8 IU/L
Na [4]: 141.2 meq/L
PL [4]: 156.8 mg/dL
RALB [4]: 3.6 g/dL
TBIL [4]: 0.1 mg/dL
TC [4]: 89.8 mg/dL
TG [4]: 81.6 mg/dL
TP [4]: 6.3 g/dL
gamma-GTP [4]: 1.6 IU/L
TERMINAL_BW [5]: 221.3 g
APTT [5]: 18.9 s
Bas [5]: 0%
Eos [5]: 1%
Fbg [5]: 345 mg/dL
Hb [5]: 9.4 g/dL
Ht [5]: 28%
Lym [5]: 61.8%
MCH [5]: 21.6 pg
MCHC [5]: 33.5%
MCV [5]: 64.6 fL
Mono [5]: 3.8%
Neu [5]: 28.4%
PT [5]: 11.3 s
Plat [5]: 117.3 x10_4/uL
RBC [5]: 434.2 x10_4/ul
Ret [5]: 13.5%
WBC [5]: 154.9 x10_2/uL
KIDNEY_L [5]: 1 g
KIDNEY_R [5]: 1 g
KIDNEY_TOTAL [5]: 2 g
LIVER [5]: 11 g
A/G [5]: 1.2
ALP [5]: 624.6 IU/L
ALT [5]: 28.6 IU/L
AST [5]: 54.6 IU/L
BUN [5]: 15 mg/dL
CRE [5]: 0.4 mg/dL
Ca [5]: 10.7 mg/dL
Cl [5]: 103.4 meq/L
DBIL [5]: 0.08 mg/dL
GLC [5]: 175 mg/dL
IP [5]: 6.7 mg/dL
K [5]: 4.1 meq/L
LDH [5]: 155.2 IU/L
Na [5]: 140.2 meq/L
PL [5]: 170.6 mg/dL
RALB [5]: 2.7 g/dL
TBIL [5]: 0.1 mg/dL
TC [5]: 88.4 mg/dL
TG [5]: 161.8 mg/dL
TP [5]: 4.9 g/dL
gamma-GTP [5]: 1.2 IU/L
TERMINAL_BW [6]: 251.1 g
TERMINAL_BW [7]: 275.2 g
TERMINAL_BW [8]: 342.8 g
APTT [6]: 17.3 s
Bas [6]: 0%
Eos [6]: 1%
Fbg [6]: 304.2 mg/dL
Hb [6]: 11.1 g/dL
Ht [6]: 32.3%
Lym [6]: 63.6%
MCH [6]: 22 pg
MCHC [6]: 34.4%
MCV [6]: 64.1 fL
Mono [6]: 3.4%
Neu [6]: 28.2%
PT [6]: 11.5 s
Plat [6]: 160 x10_4/uL
RBC [6]: 506.4 x10_4/ul
Ret [6]: 14.9%
WBC [6]: 201.4 x10_2/uL
APTT [7]: 19.6 s
Bas [7]: 0%
Eos [7]: 1%
Fbg [7]: 291.8 mg/dL
Hb [7]: 11.2 g/dL
Ht [7]: 33.5%
Lym [7]: 56.8%
MCH [7]: 23.9 pg
MCHC [7]: 33.2%
MCV [7]: 71.9 fL
Mono [7]: 2.8%
Neu [7]: 37.2%
PT [7]: 11.9 s
Plat [7]: 200.5 x10_4/uL
RBC [7]: 466.8 x10_4/ul
Ret [7]: 18.8%
WBC [7]: 198.5 x10_2/uL
APTT [8]: 19 s
Bas [8]: 0%
Eos [8]: 0.8%
Fbg [8]: 318 mg/dL
Hb [8]: 10 g/dL
Ht [8]: 32.3%
Lym [8]: 54.2%
MCH [8]: 21.1 pg
MCHC [8]: 30.8%
MCV [8]: 68.5 fL
Mono [8]: 2.8%
Neu [8]: 39.2%
PT [8]: 11.6 s
Plat [8]: 186.5 x10_4/uL
RBC [8]: 473 x10_4/ul
Ret [8]: 22.3%
WBC [8]: 274.1 x10_2/uL
KIDNEY_L [6]: 1.2 g
KIDNEY_R [6]: 1.1 g
KIDNEY_TOTAL [6]: 2.3 g
KIDNEY_L [7]: 1.2 g
KIDNEY_R [7]: 1.2 g
KIDNEY_TOTAL [7]: 2.4 g
KIDNEY_L [8]: 1.4 g
KIDNEY_R [8]: 1.4 g
KIDNEY_TOTAL [8]: 2.8 g
LIVER [6]: 12.2 g
LIVER [7]: 13.3 g
LIVER [8]: 15.2 g
A/G [6]: 1.3
ALP [6]: 574.4 IU/L
ALT [6]: 29.6 IU/L
AST [6]: 60.6 IU/L
BUN [6]: 15.8 mg/dL
CRE [6]: 0.4 mg/dL
Ca [6]: 10.3 mg/dL
Cl [6]: 103.6 meq/L
DBIL [6]: 0.084 mg/dL
GLC [6]: 197.2 mg/dL
IP [6]: 7.3 mg/dL
K [6]: 3.9 meq/L
LDH [6]: 227.8 IU/L
Na [6]: 140.6 meq/L
PL [6]: 150.4 mg/dL
RALB [6]: 2.9 g/dL
TBIL [6]: 0.1 mg/dL
TC [6]: 79.4 mg/dL
TG [6]: 136.4 mg/dL
TP [6]: 5 g/dL
gamma-GTP [6]: 1 IU/L
A/G [7]: 1.2
ALP [7]: 476.5 IU/L
ALT [7]: 30 IU/L
AST [7]: 57.2 IU/L
BUN [7]: 19.2 mg/dL
CRE [7]: 0.5 mg/dL
Ca [7]: 10.4 mg/dL
Cl [7]: 104 meq/L
DBIL [7]: 0.1 mg/dL
GLC [7]: 187.5 mg/dL
IP [7]: 6.5 mg/dL
K [7]: 4.4 meq/L
LDH [7]: 145.2 IU/L
Na [7]: 141.5 meq/L
PL [7]: 162.2 mg/dL
RALB [7]: 2.9 g/dL
TBIL [7]: 0.1 mg/dL
TC [7]: 78 mg/dL
TG [7]: 170.2 mg/dL
TP [7]: 5.2 g/dL
gamma-GTP [7]: 1.8 IU/L
A/G [8]: 1.2
ALP [8]: 382.8 IU/L
ALT [8]: 30.8 IU/L
AST [8]: 68.2 IU/L
BUN [8]: 20.5 mg/dL
CRE [8]: 0.5 mg/dL
Ca [8]: 10.4 mg/dL
Cl [8]: 104.2 meq/L
DBIL [8]: 0.1 mg/dL
GLC [8]: 190.5 mg/dL
IP [8]: 6.6 mg/dL
K [8]: 3.7 meq/L
LDH [8]: 166.2 IU/L
Na [8]: 141.2 meq/L
PL [8]: 176.8 mg/dL
RALB [8]: 2.9 g/dL
TBIL [8]: 0.2 mg/dL
TC [8]: 87.2 mg/dL
TG [8]: 212 mg/dL
TP [8]: 5.3 g/dL
gamma-GTP [8]: 2 IU/L
